Assay results published in PubChem BioAssay AID1949 (Southern Research Institute, 2009).
≈ marks a conversion by molar mass, not a printed value. Records with an inconclusive call do not appear. Calls of active or inactive are those of the source. No rule for the calls is given here.

Each molecule was assayed on M. tuberculosis H37Rv growth inhibition (assay: Mycobacterium tuberculosis H37Rv growth inhibition, cell based, confirmatory dose response (AID 1949);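 also: bacteria grown 7 days with compound before Alamar blue readout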).

SMILES	IC50
Oc1ccc(CSc2ccccc2)c2cccnc12	0.6 µg/mL (≈ 2.24 µM)
Oc1ccc(/C=C/c2nc(-c3ccccc3O)n(-c3ccccc3)n2)cc1	5.63 µg/mL (≈ 15.8 µM)
CCc1c(C)c2ccc(OCC(=O)OC)c(C)c2oc1=O	0.54 µg/mL (≈ 1.86 µM)
CCOC(=O)C(C)n1cnc2scc(-c3ccc(CC)cc3)c2c1=O (stereo unspecified)	3.9 µg/mL (≈ 10.9 µM)
O=c1c2c(-c3ccc(Cl)cc3)csc2nc2c3ccccc3c(NCCN3CCOCC3)nn12	11.2 µg/mL (≈ 22.8 µM)
c1ccc2c(C(c3ccncc3)c3c[nH]c4ccccc34)c[nH]c2c1	12.2 µg/mL (≈ 37.8 µM)
O=[N+]([O-])c1nn(-c2ccccc2)n(O)c1=NC1CCCC1	39.3 µg/mL (≈ 136 µM)
CCCC1(O)CC(c2ccc(Cl)cc2)NC(c2ccc(Cl)cc2)C1C (stereo unspecified)	2.34 µg/mL (≈ 6.18 µM)
Cc1ccc(-c2csc3nc(SCC(N)=O)n(-c4ccccc4)c(=O)c23)cc1C	2.98 µg/mL (≈ 7.07 µM)
CC(C)(C)c1cc(Cl)c(O)c(NC(=S)NC(=O)c2cccnc2)c1	< 0.1 µg/mL
O=C(Oc1ccccc1)c1cccc(COC(=O)c2cnccn2)c1	28 µg/mL (≈ 83.8 µM)
COc1ccc(CNC(=O)c2c(N)nc3sc4c(c3c2C(F)(F)F)CCC4)cc1	0.31 µg/mL (≈ 0.736 µM)
O=C(O)c1ccc(NC(CC(=O)c2ccccc2)c2ccc(Br)cc2)cc1 (stereo unspecified)	7.58 µg/mL (≈ 17.9 µM)
Cc1cc(C)c2c(N)c3cccc(C)c3nc2n1	> 50 µg/mL (inactive)
Brc1c(OCCCn2ccnc2)ccc2ccccc12	1.56 µg/mL (≈ 4.71 µM)
CCOC(=O)N1CCc2c(sc(NC(=O)c3ccc([N+](=O)[O-])o3)c2C(=O)Nc2ccc(OCC)cc2)C1	5.64 µg/mL (≈ 10.7 µM)
COc1cc(CNC(C)c2ccccc2)cc(Br)c1OCc1ccccc1 (stereo unspecified)	6.21 µg/mL (≈ 14.6 µM)
COC(=O)c1ccc(OC(=O)c2c(F)c(F)c(F)c(F)c2F)cc1	9.14 µg/mL (≈ 26.4 µM)
CCOc1cccc(N2C(=O)CC(S/C(N)=N/N=C(\C)c3ccc(Cl)s3)C2=O)c1 (stereo unspecified)	2.62 µg/mL (≈ 5.81 µM)
COC(=O)COc1ccc2cc(-c3ccc(OC)c(OC)c3)c(=O)oc2c1	1.03 µg/mL (≈ 2.78 µM)
CCOC(=O)COc1ccc2c(=O)c(-c3ccc(OC)cc3)c(C)oc2c1	1.29 µg/mL (≈ 3.5 µM)
O=C1c2cccc3cccc(c23)C(=O)N1CCN1CCN(CC(O)COc2ccccc2Cl)CC1 (stereo unspecified)	2.93 µg/mL (≈ 5.93 µM)
CSc1ncc(C(=O)NCc2ccco2)cn1	3.04 µg/mL (≈ 12.2 µM)
Cc1cc(NC(=O)CSc2nnnn2-c2ccccc2C)no1	1.41 µg/mL (≈ 4.27 µM)

SMILES	IC50
COc1cc(NC(=O)c2cc3ccccc3o2)ccc1NC(=O)c1ccccc1Cl	2.31 µg/mL (≈ 5.49 µM)
COc1ccccc1OC(=O)c1sc2ccccc2c1Cl	1.37 µg/mL (≈ 4.3 µM)
Cc1cc(Cl)ccc1OCC(=O)Nc1ccc(N2CCN(C)CC2)c(Cl)c1	5.62 µg/mL (≈ 13.8 µM)
Cc1cc(=O)oc2c(C)c(OCC(=O)OCc3ccccc3)ccc12	2.11 µg/mL (≈ 6.24 µM)
Cc1ccc(Cc2ccc(C(=O)Nc3ccc(C)c(C)c3)o2)cc1	0.18 µg/mL (≈ 0.564 µM)
CCOC(=O)C1CCN(C2=NC(=O)/C(=C\c3ccc(Cl)cc3Cl)S2)CC1	0.41 µg/mL (≈ 0.992 µM)
COc1cccc(OC)c1C(=O)Nc1cccc(-c2nc3cc(C)ccc3o2)c1	> 50 µg/mL (inactive)
COc1ccc(C(=O)N=Nc2c(O)[nH]c3ccc(Br)cc23)cc1	19.9 µg/mL (≈ 53.1 µM)
CN1CCN(c2nc(N3CCCc4ccccc43)nc(N3CCCc4ccccc43)n2)CC1	5.33 µg/mL (≈ 12.1 µM)
CCN(c1ccccc1)S(=O)(=O)c1ccc(NC(=O)Nc2ccc(Cl)cc2)cc1	5.77 µg/mL (≈ 13.4 µM)
O=C(CC1(O)C(=O)N(CCc2ccccc2)c2ccc(Cl)cc21)c1ccccn1 (stereo unspecified)	5.07 µg/mL (≈ 12.5 µM)
Cc1c(NC(=O)Nc2cccc(C(F)(F)F)c2)cccc1[N+](=O)[O-]	2.93 µg/mL (≈ 8.64 µM)
Cc1nc2ccccc2n1CCCOc1ccc(Cl)cc1	4.87 µg/mL (≈ 16.2 µM)
c1ccc(COc2ccc(OCCn3ccnc3)cc2)cc1	10.4 µg/mL (≈ 35.2 µM)
CCOC(=O)COc1ccc2c(c1)c(C(=O)OCC)c(C)n2CC	0.4 µg/mL (≈ 1.2 µM)
COc1cccc(OC)c1C(=O)Nc1ccc(Cl)c(-c2nc3ccccc3s2)c1	1.49 µg/mL (≈ 3.51 µM)
O=C(CCc1ccccc1)NC1C2CC3CC(C2)CC1C3 (stereo unspecified)	3.08 µg/mL (≈ 10.9 µM)
Cc1ccc2[nH]c3c(c2c1)CCCC3NCC(O)Cc1ccccc1 (stereo unspecified)	6.03 µg/mL (≈ 18 µM)
Cc1cc(OCCCCn2ccnc2)cc(C(C)C)c1	2.03 µg/mL (≈ 7.45 µM)
N#Cc1ccc(-c2ccc(OCC(N)=O)cc2)cc1	< 0.1 µg/mL
O=C1c2cccc3c([N+](=O)[O-])ccc(c23)C(=O)N1Cc1ccccc1	46 µg/mL (≈ 138 µM)
CCOC(=O)c1c(NC(=O)COc2ccc(C(C)C)cc2)sc2c1CCC2	2.77 µg/mL (≈ 7.15 µM)
CCOC(=O)COc1ccc(S(=O)(=O)Nc2c(C)cccc2CC)cc1	0.33 µg/mL (≈ 0.874 µM)
O=C(Nc1cccc(I)c1)C(Cl)Cl	5.84 µg/mL (≈ 17.7 µM)

SMILES	IC50
COc1ccc(CCNC(=O)c2ccc(C#CC(C)(C)O)s2)cc1	< 0.1 µg/mL
CC(=O)N(C)c1ccc(OCC(O)Cn2c3ccc(Cl)cc3c3cc(Cl)ccc32)cc1 (stereo unspecified)	2.96 µg/mL (≈ 6.47 µM)
CC(=O)c1ccc(NC(=O)Nc2cc(OCC(F)(F)F)cc(OCC(F)(F)C(F)F)c2)cc1	2.74 µg/mL (≈ 5.68 µM)
Fc1ccc(CCNC(=S)Nc2ccc(Nc3ccccc3)cc2)cc1	> 50 µg/mL (inactive)
COc1cc2c(cc1OC)C(c1ccc(-c3ccc(Cl)c(Cl)c3)o1)=NCC2	6.98 µg/mL (≈ 17.4 µM)
COc1cccc2cc(C(=O)Oc3ccc(Cl)cc3)c(=O)oc12	> 50 µg/mL (inactive)
CCc1ccc(S(=O)(=O)Nc2ccc(I)cc2)cc1	11.7 µg/mL (≈ 30.1 µM)
CC(=O)c1c(C)nc(-c2ccc(Cl)c(Cl)c2)n1O	17.4 µg/mL (≈ 60.9 µM)
Nc1ncnc(Sc2ncccn2)c1[N+](=O)[O-]	> 50 µg/mL (inactive)
Cc1ccc(N2CC(C(=O)OCc3cccc(C(=O)Oc4ccccc4)c3)CC2=O)cc1 (stereo unspecified)	> 50 µg/mL (inactive)
CC(NC(=O)NNC(=O)c1ccncc1)(C(F)(F)F)C(F)(F)F	0.18 µg/mL (≈ 0.523 µM)
CC12CC3CC(C)(C1)CC(C(=O)Nc1nc4ccccc4s1)(C3)C2	0.24 µg/mL (≈ 0.705 µM)
Oc1ccc(Cl)cc1C1=NNC(c2ccccc2Cl)C1 (stereo unspecified)	0.65 µg/mL (≈ 2.12 µM)
CCOC(=O)CSc1nc(C#N)c(SCC(=O)OCC)s1	2.29 µg/mL (≈ 6.61 µM)
COC(=O)c1ccc(OCC(O)CN2CCN(c3cc(Cl)ccc3C)CC2)cc1 (stereo unspecified)	5.13 µg/mL (≈ 12.2 µM)
S=C(NCc1ccc(Cl)cc1)NCc1ccc(-n2cccn2)cc1	5.4 µg/mL (≈ 15.1 µM)
O=C(Nc1cccc(Cl)c1)Nc1ccccc1OC(F)(F)C(F)F	0.19 µg/mL (≈ 0.524 µM)
CN1CCN(c2cc(-c3ccccc3)nc3c(C(F)(F)F)cccc23)CC1	1.88 µg/mL (≈ 5.06 µM)
O=C(Oc1c(Cl)cc(Cl)c2cccnc12)c1ccc([N+](=O)[O-])cc1	0.88 µg/mL (≈ 2.42 µM)
Cc1ccc(C(=O)Nc2ccc([N+](=O)[O-])cc2)s1	< 0.1 µg/mL
COC(=O)COc1ccc(NC(=O)COc2ccc(C(C)(C)C)cc2)cc1	0.17 µg/mL (≈ 0.458 µM)
Cc1cc(C)nc(/N=C(\N)Nc2ccc(OCc3ccc(Cl)cc3)cc2)n1	34.4 µg/mL (≈ 90.2 µM)
O=C(NC(=S)N1CCc2ccccc21)c1ccco1	5.64 µg/mL (≈ 20.7 µM)
O=[N+]([O-])c1c(Sc2ncnc3ccccc23)ccc2nsnc12	22.2 µg/mL (≈ 65.1 µM)

SMILES	IC50
CCCCN1CCC(O)(c2ccccc2)C(C(=O)c2ccccc2)C1 (stereo unspecified)	11.4 µg/mL (≈ 33.9 µM)
O=C(Oc1ccc(Cl)c2cccnc12)c1cccc(Br)c1	10.6 µg/mL (≈ 29.3 µM)
Cc1cccc(OCc2nnc(SCC(=O)NCCc3ccccc3)o2)c1	0.46 µg/mL (≈ 1.2 µM)
O=C(NCc1ccc(Cl)cc1)c1ccccc1-c1ccccc1	13.2 µg/mL (≈ 41.1 µM)
CCOC(=O)CSc1cc(C)nc2ccc(C)cc12	1.66 µg/mL (≈ 6.03 µM)
CCCCNCCOCCOc1ccc(Cl)cc1C(C)(C)C	4.33 µg/mL (≈ 13.2 µM)
O=C(Nc1ncnc2sc3c(c12)CCCC3)c1ccc(F)cc1	0.52 µg/mL (≈ 1.59 µM)
CCOC(=O)COc1ccc2cc(-c3nc4ccccc4s3)c(=O)oc2c1	1.35 µg/mL (≈ 3.54 µM)
Cc1cc(C(=O)Oc2ccc(Cc3ccccc3)cc2)ccc1[N+](=O)[O-]	2.23 µg/mL (≈ 6.42 µM)
C=CCn1c(Sc2ccc(C(F)(F)F)cc2[N+](=O)[O-])nnc1-c1ccccc1Cl	0.19 µg/mL (≈ 0.431 µM)
O=C1c2cccc3cc([N+](=O)[O-])cc(c23)C(=O)N1CCO	> 50 µg/mL (inactive)
O=C(Nc1ccc(F)cc1)NC1CCCCCCC1	2.53 µg/mL (≈ 9.57 µM)
Cc1cc(Cl)ccc1OCC(O)CNC(C)c1ccccc1 (stereo unspecified)	8.02 µg/mL (≈ 25.1 µM)
COc1cccc(-n2nnnc2S(=O)(=O)Cc2ccccc2)c1	0.38 µg/mL (≈ 1.15 µM)
Cc1cc(C)nc(/N=C(/N)Nc2ccc(OCc3ccccc3)cc2)n1	4.64 µg/mL (≈ 13.4 µM)
COc1cc(/C=C/c2ccc3cccc(OC)c3n2)c(Cl)cc1OC(C)=O	35.3 µg/mL (≈ 92 µM)
CC(=O)c1cccc(NC(=S)NC(=O)c2ccc(C(C)(C)C)cc2)c1	12.5 µg/mL (≈ 35.3 µM)
O=[N+]([O-])c1ccccc1S(=O)(=O)Nc1ccc(S(=O)(=O)Nc2nccs2)cc1	3.8 µg/mL (≈ 8.63 µM)
O=C(CCNc1ccc(-c2ccccc2)cc1)c1ccco1	< 0.1 µg/mL
CCn1cc(C(=O)O)c(=O)c2cc(F)c(N3CCN(C(=O)Nc4ccccc4)CC3)cc21	> 50 µg/mL (inactive)
CCn1c(/C=C/c2ccc(F)cc2)nc2ccccc21	8.17 µg/mL (≈ 30.7 µM)
N#Cc1ccc(NC(=O)C23CC4CC(CC(C4)C2)C3)cc1	23.7 µg/mL (≈ 84.6 µM)
C=CCc1ccccc1OCCCCn1ccnc1	3.93 µg/mL (≈ 15.3 µM)
C=CCn1c(NCc2cccc3ccccc23)nc2ccccc21	3.16 µg/mL (≈ 10.1 µM)

SMILES	IC50
O=C(NCCC12CC3CC(CC(C3)C1)C2)c1ccc(Br)cc1	0.28 µg/mL (≈ 0.773 µM)
CC(C)(C)C(=O)NC(=S)NNC(=O)C(c1ccccc1)c1ccccc1	3.01 µg/mL (≈ 8.15 µM)
Clc1cccc(Nc2nc(NCc3ccco3)c3ccccc3n2)c1	1.05 µg/mL (≈ 2.99 µM)
Cc1ccc2nc(/C(C#N)=C\c3c[nH]c4ccc(Br)cc34)[nH]c2c1	0.62 µg/mL (≈ 1.64 µM)
COCCNc1nc(-c2ccc(Cl)cc2)nc2ccccc12	> 50 µg/mL (inactive)
FC(F)(F)c1cccc(NC(=S)Nc2ccc(Cl)cc2Cl)c1	12.1 µg/mL (≈ 33.1 µM)
O=C(Nc1ccccc1Br)c1ccc([N+](=O)[O-])o1	1.61 µg/mL (≈ 5.18 µM)
CCOC(=O)c1ccc(NC(=O)CC2C(=O)N(Cc3ccccc3)C(=S)N2Cc2cccnc2)cc1 (stereo unspecified)	6.04 µg/mL (≈ 12 µM)
COc1ccc(OC(C)C(=O)Nc2ccc(Cl)cc2C)cc1 (stereo unspecified)	0.62 µg/mL (≈ 1.94 µM)
Cc1ccc(C(=O)Nc2nc(C(C)(C)C)cs2)cc1[N+](=O)[O-]	27.2 µg/mL (≈ 85.3 µM)
CC(C)C(=O)Nc1ccc(C(=O)Oc2ccccc2)c(O)c1	< 0.1 µg/mL
Brc1ccc2ncnc(Nc3ccc(N4CCCC4)cc3)c2c1	< 0.1 µg/mL
CCC(C)c1ccc(OCCn2ccnc2)cc1 (stereo unspecified)	2.73 µg/mL (≈ 11.2 µM)
O=C1c2ccc(-c3nc4ccccc4c(=O)o3)cc2C(=O)N1Cc1ccccc1	> 50 µg/mL (inactive)
COc1cccc(NC(=O)CSc2ccc(Br)cc2)c1	11.7 µg/mL (≈ 33.2 µM)
Cc1ccc2oc(-c3cc(NC(=O)Cc4ccccc4)ccc3Cl)nc2c1	< 0.1 µg/mL
COc1ccc(C2(C(=O)Nc3ccc(Br)cc3)CCCC2)cc1	1.37 µg/mL (≈ 3.66 µM)
Cc1ccc(NC(=S)Nc2cc(C)[nH]n2)c(Cl)c1	22.2 µg/mL (≈ 79.2 µM)
Cc1cc(C)cc(OCC(=O)Nc2ccc3oc(-c4ccc(F)cc4)nc3c2)c1	> 50 µg/mL (inactive)
Cn1c(NC(=O)c2ccccc2)nc2ccccc21	0.57 µg/mL (≈ 2.27 µM)
